In paper PMC10442743 (Dalton Transactions (Cambridge, England : 2003), 2023):
Where two headings read alike, the source gives them in different places.

How the values were obtained:
MCF-7 = assay: MTT cytotoxicity assay, MCF-7 cells; type: cell-based, human; details: MTT
Description: (§1) The cytotoxicity of 1–11CA was assessed against human breast cancer MCF-7 and MDA-MB-231 cells, and non-tumorigenic adherent mouse fibroblast connective tissue L929 cells using the MTT assay after 24 and 72 h (Tables S5 ^† and Table 1, respectively).
(§2) Then, necessary dilutions were made using the supplement DMEM, to prepare the range of tested concentrations. Since DMSO was used to solubilize the compounds, a supplemented DMEM + DMSO (at the same percentage as in the sequential dilutions) was considered as a control in the 3-[4,5-dimetylthiazole-2-yl]-2,5-diphenyltetrazolium bromide (MTT) assay.
(§3) L929, MCF-7, and MDA-MB-231 cell lines were cultured in DMEM supplemented with 10% (v/v) FBS and 1% (v/v) of penicillin–streptomycin. The cells were incubated in a humidified chamber at 37 °C under saturated air with a 5% CO2 atmosphere. Cells were passed at 80%–90% of confluency with 0.25% (w/v) trypsin and the cell culture media was changed every 2–3 days.
(§4) The compounds were tested on two breast cancer cell lines (MCF-7 and MDA-MB-231) and L929 fibroblasts, used as a reference for the safety evaluation according to ISO 10993-1:2009 “Biological evaluation of medical devices”. Cells were seeded on sterile 96-well plates at 50 000 cells per well (L929) and 20 000 cells per well (MCF-7 and MDA-MB-231) in supplemented DMEM medium (100 μL) for 24 h. The culture medium was removed and new media containing different concentrations of the compounds (0–1000 μM) was added to the wells (100 μL). Control cells were incubated under the same conditions in the absence of a compound. Cells were incubated for 24 and 72 h under the same conditions described above. Then, the medium was removed, and the cells were incubated with 3-(4,5-dimethylthiazol-2-yl)-2,5-diphenyltetrazolium bromide (MTT; 0.5 mg mL^−1) for 3 h. After this time, the medium was removed, and formazan crystals were solubilized with DMSO (100 μL per well). The absorbance in each well was read on a SynergyTM HT Multimode microplate reader (BioTek Instruments; Winooski, VT, USA) at 570 and 630 nm (for background correction), and the cell viability was calculated according to the following equation (eqn (1)):1 [drawing 3] where OD570(sample) and OD630(sample) are the optical densities of the solutions containing the compounds and OD570(control) and OD630(control) are controls without compound.
(§5) Each apoptosis value determination represents the mean ± standard deviation of 2 independent assays. The IC50 values were obtained using GraphPad Prism software and ANOVA (analysis of variance) was performed to determine the statistical difference between the IC50 values of different cell lines.

MDA-MB-231 = assay: MTT cytotoxicity assay, MDA-MB-231 cells; type: cell-based, human; details: MTT
Description: as §1, §2, §3, §4, §5

[1] = n-octanol/water partition coefficient (shake-flask, ICP-MS)
Description: The saturated solutions were filtered
(DigiPREP Jr. 15ml, 40 Pos, SCP Science). The digestion program was the following: 15
After the digestion, the sample
Samples were further diluted
range. All measurements were performed in triplicates.
lipophilicity of a compound. This assay was performed following the Shake-flask method
organic and aqueous phase. Aliquots of each phase were taken and analyzed separately
range. The partition coefficient was calculated as P!"=
respectively. All measurements were performed in triplicates.

[2] = Solubility in water (ICP-MS); details: 25 °C, limit of detection = 5 ppt
Description: sonication, the mixtures were stirred at 25 °C for 1 h. The saturated solutions were filtered
to remove any insoluble solids, dissolved in 0.5 mL of MilliQ water, and analyzed using
ICP-MS. Samples were submitted to acidic digestion with 2 mL of concentrated HNO3
min to heat to 100°C and keep at 100°C for 60 min. After the digestion, the sample
volumes were precisely adjusted to 5 mL with MilliQ water. Samples were further diluted
30 times with 2% HNO3 solution and their Ru content was analyzed by ICP-MS using
standard mode on NexIon 350 D ICP-MS instrument (PerkinElmer). Yttrium was added
as an internal standard at a concentration of 2 ppb to all the solution and Ru quantitation
was performed using an external calibration curve with standards in the 0.05-50 ppb

ctDNA = assay: Circular dichroism / induced circular dichroism with calf thymus DNA
Description: Calf thymus (ct) DNA (Merck®) was used to perform the circular dichroism assay to detect conformational changes in the ctDNA induced by the compounds. CD spectral data was collected on a Chirascan™ V100 (Applied Photophysics) spectropolarimeter equipped with a large area Avalanche photodiodes detector and computer-controlled thermoelectrical cell holder using a 1 cm path length quartz cuvette. CD spectra of ctDNA in the absence and presence of different concentrations of 11Cl were recorded at wavelengths ranging from 320 to 190 nm under constant nitrogen flush at 25 °C. For each CD spectrum, the number of scans was set to 5, and spectral data were collected at 0.1 ms intervals. Additionally, methyl green (MG) and 4′,6-diamidino-2-phenylindole (DAPI), and propidium iodide (PI) were analyzed as minor and major groove binders and as an intercalator, respectively, to help identify the binding mode of 11Cl to DNA. Samples were prepared in 10 mM Tris-HCl buffer (pH 7.6) with 1 mM EDTA. The concentration of ctDNA was fixed at 100 μM (concerning base pairs) and the ctDNA to 11Cl ratio was varied between 0 and 1. The samples were incubated for 24 h at 37 °C and then analyzed in the CD spectropolarimeter.

Q: Which results are given for `Cc1ccccc1.[Cl-].[Cl][Ru+]([PH](c1ccccc1)(c1ccccc1)c1ccccc1)[PH](c1ccccc1)(c1ccccc1)c1ccccc1` [Compound 11Cl, [Ru(η^6-toluene)(PPh3)2Cl]Cl]?
A: IC50 (MCF-7; 24 h exposure, read-out: IC50 (µM) (average ± standard deviation) 24 h MCF-7): 4 ± 0.3 µM; IC50 (MCF-7; 72 h exposure, read-out: IC50 (μM) (average ± standard deviation) 72 h MCF-7): 0.061 ± 0.003 µM; IC50 (MDA-MB-231; 24 h exposure, read-out: IC50 (µM) (average ± standard deviation) 24 h MDA-MB-231): 5.5 ± 0.6 µM; IC50 (MDA-MB-231; 72 h exposure, read-out: IC50 (μM) (average ± standard deviation) 72 h MDA-MB-231): 0.086 ± 0.006 µM; LogPow [1]: 1.48 ± 0.29; Solubility (μM) [2]: 528 ± 88 µM; Solubility (μg/mL) [2]: 416 ± 70 µg/mL; CD band 210 nm, intensity change (ctDNA; DNA, 24 h, 37 °C): decrease in the ellipticity; CD band 210 nm, wavelength shift (ctDNA; DNA, 24 h, 37 °C): remained unchanged; CD band 220 nm (hydrogen bonding), intensity change (ctDNA; DNA, 24 h, 37 °C): increase in the circularity; CD band 220 nm (hydrogen bonding), wavelength shift (ctDNA; DNA, 24 h, 37 °C): small bathochromic (red) shift; CD band 246 nm (helicity), intensity change (ctDNA; DNA, 24 h, 37 °C): decrease in the ellipticity; CD band 246 nm (helicity), wavelength shift (ctDNA; DNA, 24 h, 37 °C): remained unchanged; CD band 268−280 nm (base-pair stacking interactions), intensity change (ctDNA; DNA, 24 h, 37 °C): decrease in the ellipticity; CD band 268−280 nm (base-pair stacking interactions), wavelength shift (ctDNA; DNA, 24 h, 37 °C): remained unchanged; decrease of the intensity of the ICD bands of DAPI (ctDNA; DNA–DAPI after treatment with 11Cl): 35%; decrease of the intensity of the ICD bands of MG (ctDNA; DNA–MG after treatment with 11Cl): 20%
